Values after ≈ are worked out from the molar mass of the structure shown. Where two headings read alike, the source gives them in different places.
Key:
[1] = system: Serratia marcescens DSM-30121; assay: MIC microdilution, Serratia marcescens DSM-30121; type: cell-based; conditions: Serratia marcescens, DSM30121, read-out: MIC Serratia marcescens DSM-30121
Method: (§1) Indicator strains used in susceptibility assays were either part of our strain collection or purchased from the German Collection of Microorgansims and Cell Cultures (DSMZ) or from the American Type Culture Collection (ATCC). E. coli strain WT and corresponding E. coli mutants were kindly provided by Prof. Dr. P. Heisig, Pharmaceutical Biology and Microbiology, University of Hamburg. E. coli strains JW0401-1 (WT) and Δtsx were obtained from the CGSC collection.
(§2) MIC values were determined in standardized microdilution assays. Overnight cultures were diluted in the appropriate growth medium to achieve an inoculum of 10^4-10^6 cfu/mL. Yeasts were grown in Myc medium (1% phytone peptone, 1% glucose, 50 mM HEPES, pH 7.0), S. pneumonia and Enterococcus spp. in tryptic soy broth (TSB: 1.7% peptone casein, 0.3% peptone soymeal, 0.25% glucose, 0.5% NaCl, 0.25% K2HPO4; pH 7.3); M. smegmatis in Middlebrook 7H9 medium supplemented with 10% Middlebrook ADC enrichment and 2 ml/I glycerol). All other listed bacteria were grown in Müller-Hinton broth (0.2% beef infusion solids, 1.75% casein hydrolysate, 0.15% starch, pH 7.4). Cystobactamides and reference drugs were added directly to the cultures in sterile 96-well plates as duplicates and serial dilutions were prepared. Microorganisms were grown on a microplate shaker (750 rpm, 30-37° C., 18-48 h), except S. pneumonia, which was grown at non-shaking conditions (37° C., 5% CO2, 18 h). Growth inhibition was assessed by visual inspection and the MIC was defined as the lowest concentration of compound that inhibited visible growth.

[2] = system: Escherichia coli WT-3.2 [gyrA(D87G)]; assay: MIC microdilution, E. coli WT-3.2 [gyrA(D87G)]; type: cell-based; conditions: read-out: MIC Escherichia coli WT-3.2 [gyrA(D87G)]
Method: as §1
as §2, with “Cystobactamides and reference drugs were added directly to the cultures in sterile 96-well plates as duplicates and serial dilutions were prepared. Microorganisms were grown on a microplate shaker (750 rpm, 30-37° C., 18-48 h), except S. pneumonia, which was grown at non-shaking conditions (37° C., 5% CO2, 18 h).” left out

[3] = system: Burkholderia cenocepacia DSM-16553; assay: MIC microdilution, Burkholderia cenocepacia DSM-16553; type: cell-based; conditions: DSM16553, read-out: MIC Burkholderia cenocepacia DSM-16553
Method: as §1
as §2, with “Cystobactamides and reference drugs were added directly to the cultures in sterile 96-well plates as duplicates and serial dilutions were prepared. Microorganisms were grown on a microplate shaker (750 rpm, 30-37° C., 18-48 h), except S. pneumonia, which was grown at non-shaking conditions (37° C., 5% CO2, 18 h).” left out

[4] = system: Enterococcus faecalis ATCC29212; assay: MIC microdilution, Enterococcus faecalis ATCC29212; type: cell-based; conditions: ATCC29212, read-out: MIC Enterococcus faecalis ATCC29212
Method: as §1
as §2, with “Cystobactamides and reference drugs were added directly to the cultures in sterile 96-well plates as duplicates and serial dilutions were prepared. Microorganisms were grown on a microplate shaker (750 rpm, 30-37° C., 18-48 h), except S. pneumonia, which was grown at non-shaking conditions (37° C., 5% CO2, 18 h).” left out

[5] = system: Klebsiella pneumoniae DSM-30104; assay: MIC microdilution, Klebsiella pneumoniae DSM-30104; type: cell-based; conditions: DSM30104, read-out: MIC Klebsiella pneumoniae DSM-30104
Method: as §1
as §2, with “Cystobactamides and reference drugs were added directly to the cultures in sterile 96-well plates as duplicates and serial dilutions were prepared. Microorganisms were grown on a microplate shaker (750 rpm, 30-37° C., 18-48 h), except S. pneumonia, which was grown at non-shaking conditions (37° C., 5% CO2, 18 h).” left out

[6] = system: Pseudomonas aeruginosa DSM-46316 (ESBL); assay: MIC microdilution, P. aeruginosa DSM-46316 (ESBL); type: cell-based; conditions: Pseudomonas aeruginosa, DSM46316, read-out: MIC Pseudomonas aeruginosa DSM-46316 (ESBL)
Method: as §1, §2

E. coli DSM-1116 = assay: MIC microdilution, E. coli DSM-1116; type: cell-based, Escherichia coli; conditions: Escherichia coli, DSM1116
Method: as §1, §2

[7] = system: P. aeruginosa DSM-24600 (ESBL); assay: MIC microdilution, P. aeruginosa DSM-24600 (ESBL); type: cell-based, Pseudomonas aeruginosa; conditions: Pseudomonas aeruginosa, DSM24600
Method: as §1, §2

[8] = system: Candida albicans DSM-1665; assay: MIC microdilution, Candida albicans DSM-1665; type: cell-based; conditions: DSM1665, read-out: MIC Candida albicans DSM-1665
Method: as §1
as §2, with “Cystobactamides and reference drugs were added directly to the cultures in sterile 96-well plates as duplicates and serial dilutions were prepared. Microorganisms were grown on a microplate shaker (750 rpm, 30-37° C., 18-48 h), except S. pneumonia, which was grown at non-shaking conditions (37° C., 5% CO2, 18 h).” left out

[9] = system: Mycobacterium smegmatis ATCC700084; assay: MIC microdilution, Mycobacterium smegmatis ATCC700084; type: cell-based; conditions: Mycolicibacterium smegmatis, ATCC700084, read-out: MIC Mycobacterium smegmatis ATCC700084
Method: as §1
as §2, with “Cystobactamides and reference drugs were added directly to the cultures in sterile 96-well plates as duplicates and serial dilutions were prepared. Microorganisms were grown on a microplate shaker (750 rpm, 30-37° C., 18-48 h), except S. pneumonia, which was grown at non-shaking conditions (37° C., 5% CO2, 18 h).” left out

[10] = system: Pseudomonas aeruginosa DSM-24599; assay: MIC microdilution, P. aeruginosa DSM-24599; type: cell-based; conditions: Pseudomonas aeruginosa, DSM24599, read-out: MIC Pseudomonas aeruginosa DSM-24599
Method: as §1, §2

Pichia anomala DSM-6766 = assay: MIC microdilution, Pichia anomala DSM-6766; type: cell-based; conditions: Hansenula anomala, DSM6766, read-out: MIC Pichia anomala DSM-6766
Method: as §1
as §2, with “Cystobactamides and reference drugs were added directly to the cultures in sterile 96-well plates as duplicates and serial dilutions were prepared. Microorganisms were grown on a microplate shaker (750 rpm, 30-37° C., 18-48 h), except S. pneumonia, which was grown at non-shaking conditions (37° C., 5% CO2, 18 h).” left out

[11] = system: Proteus vulgaris DSM-2140; assay: MIC microdilution, P. vulgaris DSM-2140; type: cell-based; conditions: Proteus vulgaris, DSM2140
Method: as §1, §2

[12] = system: Pseudomonas aeruginosa ATCC27853; assay: MIC microdilution, P. aeruginosa ATCC27853; type: cell-based; conditions: Pseudomonas aeruginosa, ATCC27853, read-out: MIC Pseudomonas aeruginosa ATCC27853
Method: as §1, §2

[13] = system: E. coli DSM-26863 (tolC3); assay: MIC microdilution, E. coli DSM-26863 (tolC3); type: cell-based, Escherichia coli; conditions: Escherichia coli
Method: as §1, §2

[14] = system: Staphylococcus epidermidis DSM-28765; assay: MIC microdilution, Staphylococcus epidermidis DSM-28765; type: cell-based; conditions: Staphylococcus epidermidis, DSM28765, read-out: MIC Staphylococcus epidermidis DSM-28765
Method: as §1, §2

[15] = system: Micrococcus luteus DSM-1790; assay: MIC microdilution, Micrococcus luteus DSM-1790; type: cell-based; conditions: DSM1790, read-out: MIC Micrococcus luteus DSM-1790
Method: as §1
as §2, with “Cystobactamides and reference drugs were added directly to the cultures in sterile 96-well plates as duplicates and serial dilutions were prepared. Microorganisms were grown on a microplate shaker (750 rpm, 30-37° C., 18-48 h), except S. pneumonia, which was grown at non-shaking conditions (37° C., 5% CO2, 18 h).” left out

[16] = system: Escherichia coli MI [gyrA(S83L)]; assay: MIC microdilution, E. coli MI [gyrA(S83L)]; type: cell-based; conditions: read-out: MIC Escherichia coli MI [gyrA(S83L)]
Method: as §1
as §2, with “Cystobactamides and reference drugs were added directly to the cultures in sterile 96-well plates as duplicates and serial dilutions were prepared. Microorganisms were grown on a microplate shaker (750 rpm, 30-37° C., 18-48 h), except S. pneumonia, which was grown at non-shaking conditions (37° C., 5% CO2, 18 h).” left out

[17] = system: Enterococcus faecium DSM-20477; assay: MIC microdilution, Enterococcus faecium DSM-20477; type: cell-based; conditions: Enterococcus faecium, DSM20477, read-out: MIC Enterococcus faecium DSM-20477
Method: as §1, §2

[18] = system: Chromobacterium violaceum DSM-30191; assay: MIC microdilution, Chromobacterium violaceum DSM-30191; type: cell-based; conditions: DSM30191, read-out: MIC Chromobacterium violaceum DSM-30191
Method: as §1
as §2, with “Cystobactamides and reference drugs were added directly to the cultures in sterile 96-well plates as duplicates and serial dilutions were prepared. Microorganisms were grown on a microplate shaker (750 rpm, 30-37° C., 18-48 h), except S. pneumonia, which was grown at non-shaking conditions (37° C., 5% CO2, 18 h).” left out

[19] = system: Streptococcus pneumoniae DSM-20566; assay: MIC microdilution, Streptococcus pneumoniae DSM-20566; type: cell-based; conditions: DSM20566, read-out: MIC Streptococcus pneumoniae DSM-20566
Method: as §1
as §2, with “Cystobactamides and reference drugs were added directly to the cultures in sterile 96-well plates as duplicates and serial dilutions were prepared. Microorganisms were grown on a microplate shaker (750 rpm, 30-37° C., 18-48 h), except S. pneumonia, which was grown at non-shaking conditions (37° C., 5% CO2, 18 h).” left out

E. coli WT = assay: MIC microdilution, E. coli WT; type: cell-based, Escherichia coli; conditions: Escherichia coli
Method: as §1, §2

[20] = system: Escherichia coli ATCC35218; assay: MIC microdilution, E. coli ATCC35218; type: cell-based; conditions: ATCC35218, read-out: MIC Escherichia coli ATCC35218
Method: as §1
as §2, with “Cystobactamides and reference drugs were added directly to the cultures in sterile 96-well plates as duplicates and serial dilutions were prepared. Microorganisms were grown on a microplate shaker (750 rpm, 30-37° C., 18-48 h), except S. pneumonia, which was grown at non-shaking conditions (37° C., 5% CO2, 18 h).” left out

[21] = system: Pseudomonas aeruginosa PA14; assay: MIC microdilution, P. aeruginosa PA14; type: cell-based; conditions: Pseudomonas aeruginosa, PA14, read-out: MIC Pseudomonas aeruginosa PA14
Method: as §1, §2

SMILES: COC(C(N)=O)C(NC(=O)c1ccc(NC(=O)c2ccc([N+](=O)[O-])cc2)cc1)C(=O)Nc1ccc(C(=O)Nc2ccc(C(=O)Nc3ccc(C(=O)O)cc3OC(C)C)c(O)c2OC(C)C)cc1 (centres unmarked) [Cys 919-2]
- MIC [1]: > 64 mg/L
- MIC [2]: 4 mg/L (≈ 4.35 µM)
- MIC [3]: > 64 mg/L
- MIC [4]: 0.1 mg/L (≈ 0.109 µM)
- MIC [5]: > 64 mg/L
- MIC [6]: > 64 mg/L
- MIC (E. coli DSM-1116; Gram-negative set, read-out: MIC E. coli DSM-1116): 0.5 mg/L (≈ 0.544 µM)
- MIC (E. coli DSM-1116; larger panel, read-out: MIC Escherichia coli DSM-1116): 1 mg/L (≈ 1.09 µM)
- MIC ([7]; Gram-negative set, read-out: MIC P. aeruginosa DSM-24600 (ESBL)): 64 mg/L (≈ 69.6 µM)
- MIC ([7]; larger panel, read-out: MIC Pseudomonas aeruginosa DSM-24600 (ESBL)): 64 mg/L (≈ 69.6 µM)
- MIC [8]: > 64 mg/L
- MIC [9]: > 64 mg/L
- MIC [10]: > 64 mg/L
- MIC (Pichia anomala DSM-6766): > 64 mg/L
- MIC ([11]; Gram-negative set, read-out: MIC P. vulgaris DSM-2140): 4 mg/L (≈ 4.35 µM)
- MIC ([11]; larger panel, read-out: MIC Proteus vulgaris DSM-2140): 4 mg/L (≈ 4.35 µM)
- MIC [12]: > 64 mg/L
- MIC ([13]; DSM26863, read-out: MIC E. coli DSM-26863 (tolC3)): 0.25 mg/L (≈ 0.272 µM)
- MIC ([13]; DSM26863, read-out: MIC Escherichia coli DSM-26863 (tolC3)): 0.5 to 1 mg/L (≈ 0.544 to 1.09 µM)
- MIC [14]: 0.25 mg/L (≈ 0.272 µM)
- MIC [15]: 0.1 to 0.2 mg/L (≈ 0.109 to 0.217 µM)
- MIC [16]: 4 mg/L (≈ 4.35 µM)
- MIC [17]: 0.25 mg/L (≈ 0.272 µM)
- MIC [18]: 15 mg/L (≈ 16.3 µM)
- MIC [19]: 0.1 mg/L (≈ 0.109 µM)
- MIC (E. coli WT; Gram-negative set, read-out: MIC E. coli WT): 0.5 mg/L (≈ 0.544 µM)
- MIC (E. coli WT; larger panel, read-out: MIC Escherichia coli WT): 0.5 mg/L (≈ 0.544 µM)
- MIC [20]: 1 mg/L (≈ 1.09 µM)
- MIC [21]: > 64 mg/L

Source: patent US10519099B2, “Cystobactamides” (priority 2014, dated 2019)
